Drawing on US20160045505A1, “COMPOUNDS AND COMPOSITIONS FOR THE TREATMENT OF PARASITIC DISEASES” (NOVARTIS AG, priority 2013, published 2016), this text covers EC50 for 34 compounds.

Where two headings read alike, the source gives them in different places.

Test [1] has as its system Leishmania donovani axenic amastigote parasites. Kind of test: Leishmania donovani axenic amastigote proliferation assay (Cell TiterGlo luminescence, 2 day incubation). The format is cell-based. Particulars: Leishmania donovani, read-out: L. donovani amastigotes EC50. For orientation: Cellular ATP, detected with luciferase, serves as a proxy for viable cell number.
Test [2] relates to Trypanosoma brucei Lister 427 strain, bloodstream form. Kind of test: Assay for proliferation of kinetoplastid parasite Trypanosoma brucei (Cell Titer Glo, 48 hours). In kind it is cell-based. Particulars: Trypanosoma brucei. The method in brief:
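Bloodstream-form T. brucei Lister 427 in HMI-9 medium was exposed to compound (DMSO vehicle) for 48 hours at 37° C, 5% CO2. Parasite growth was read as ATP by CellTiter-Glo luminescence, with EC50 calculated from percent inhibition.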

Test [3] deals with L. donovani HU3 strain in mouse peritoneal macrophages. Nature of the test: Assay for proliferation of Leishmania parasites in infected mouse peritoneal macrophages (SybrGreen staining, high-content imaging, 5 days). In kind it is cell-based, Leishmania donovani. Particulars: Leishmania donovani, Peritoneal macrophage, L. donovani in mouse peritoneal macrophages, read-out: L. donovani Macrophage EC50.

Test [4] has as its system Trypanosoma cruzi amastigotes (Tulahuen strain expressing Lac-Z) cultured in 3T3 fibroblast cells. Nature of the test: microbe, parasite or virus in culture. The following applies: Trypanosoma cruzi, TULAHUEN, Fibroblast, T. cruzi amastigotes in 3T3 fibroblast cells, read-out: T cruzi EC50. The format is cell-based.
[5] abbreviates: axenic amastigotes, inhibition of proliferation.
The mark [6] stands for this setting: T. brucei Lister 427 bloodstream form, inhibition of proliferation, read-out: T. brucei EC50.
Setting [7] is: T. brucei Lister 427 bloodstream form, read-out: T. brucei EC50.

Take `Cc1csc(C(=O)Nc2cnc3nc(-c4cc(NC(=O)c5oc(C)nc5C)ccc4F)cn3c2)n1` [Compound 148]: the concentration for a half-maximal effect (EC50) in test [1] (setting [5]) was 51 nM; in test [2] (setting [6]) it was 0.061 µM; in test [3] (inhibition of proliferation), 222 nM; in test [4] (inhibition of proliferation), 90 nM.
Take `COCC(=O)Nc1ccc(F)c(-c2cn3cc(NC(=O)OC(C)C)cnc3n2)c1` [Compound 106]: the EC50 in test [1] (setting [5]) amounted to 2740 nM; in test [2] (setting [6]), 2.2 µM; in test [3] (inhibition of proliferation) it was 24800 nM; in test [4] (inhibition of proliferation) it was 3450 nM.
On to `Cc1nc(C)c(C(=O)Nc2ccc(F)c(-c3cn4cc(NC(=O)c5c[nH]cn5)cnc4n3)c2)o1` [Compound 167], for which the concentration for a half-maximal effect (EC50) in test [1] (setting [5]) is 10800 nM; in test [2] (setting [6]), 0.904 µM; in test [3] (inhibition of proliferation) it was over 50000 nM; in test [4] (inhibition of proliferation) it was over 20000 nM.
Taken in the same sequence, the figures for `O=C(Nc1ccc(F)c(-c2cn3cc(C4=CCOCC4)cnc3n2)c1)N1CC(F)C1` [Compound 318] were 31 nM, 0.019 µM, 132 nM and 146 nM.
The corresponding values for `CC(C)OC(=O)Nc1cnc2nc(-c3cc(NC(=O)N4CCOCC4)ccc3Cl)cn2c1` [Compound 216] are 4430 nM, 3.13 µM, over 50000 nM and 11500 nM.
The corresponding values for `CC(C)OC(=O)Nc1cnc2nc(-c3cc(NC(=O)N4CCC(N(C)C)C4)ccc3Cl)cn2c1` (stereo not shown) [Compound 275] are over 25000 nM, 34.7 µM, 17100 nM and 11700 nM.
As to `Cc1ccccc1-c1cnc2nc(-c3cc(NC(=O)N4CCCC4)ccc3F)cn2c1` [Compound 356], the EC50 in test [1] (setting [5]) is 88 nM; in test [2] (setting [6]), 0.018 µM; in test [3] (inhibition of proliferation), 332 nM; in test [4] (inhibition of proliferation), 16 nM.
The corresponding values for `Cc1cc(C(=O)Nc2ccc(F)c(-c3cn4cc(NC(=O)OC(C)C)cnc4n3)c2)no1` [Compound 86] are over 25000 nM, 0.924 µM, over 50000 nM and over 20000 nM.
Consider `Cc1nc(C)c(C(=O)Nc2ccc(F)c(-c3cn4cc(-c5ncccc5C)cnc4n3)c2)o1` [Compound 453], for which the EC50 amounted to 17 nM in test [1] (L. donovani axenic amastigotes), 0.021 µM in test [2] (setting [7]), 23 nM in test [3] and 15 nM in test [4].
With `O=C(Nc1ccc(Cl)c(-c2cn3cc(-c4ccccn4)cnc3n2)c1)N1CCCC1` [Compound 456, N-(4-chloro-3-(6-(pyridin-2-yl)imidazo[1,2-a]pyrimidin-2-yl)phenyl)pyrrolidine-1-carboxamide], the concentration for a half-maximal effect (EC50) was 42 nM in test [1] (L. donovani axenic amastigotes), 0.054 µM in test [2] (read-out: T. brucei EC50 (μM)), 218 nM in test [3] and 40 nM in test [4].
Consider `CC(C)OC(=O)Nc1cnc2nc(-c3cc(NC(=O)C4CC4)ccc3F)cn2c1` [Compound 240], for which the concentration giving a half-maximal response (EC50) in test [1] (setting [5]) is 1180 nM; in test [2] (setting [6]), 0.439 µM; in test [3] (inhibition of proliferation) it was over 50000 nM; in test [4] (inhibition of proliferation) it was 602 nM.
Taken in the same sequence, the figures for `CC(C)CNC(=O)Nc1ccc(Cl)c(-c2cn3cc(NC(=O)OC(C)C)cnc3n2)c1` [Compound 263] were 1740 nM, 1.1 µM, 3530 nM and 1320 nM.
As for `CN(C)c1cnc2nc(-c3cc(NC(=O)N4CC(F)(F)C4)ccc3F)cn2c1` [Compound 466], the EC50 amounted to 158 nM in test [1] (L. donovani axenic amastigotes), 0.044 µM in test [2] (setting [7]), 207 nM in test [3] and 183 nM in test [4].
As for `COCC(=O)Nc1cnc2nc(-c3cc(NC(=O)N4CCCC4)ccc3F)cn2c1` [Compound 139], the 50% effective concentration (EC50) in test [1] (setting [5]) amounted to 450 nM; in test [2] (setting [6]) it was 0.128 µM; in test [3] (inhibition of proliferation), 6820 nM; in test [4] (inhibition of proliferation) it was 3740 nM.
The corresponding values for `Cc1nc(C)c(C(=O)Nc2ccc(F)c(-c3cn4cc(NC(=O)C5CCN(C(C)C)CC5)cnc4n3)c2)o1` [Compound 194] are over 25000 nM, 29.8 µM, over 50000 nM and over 20000 nM.
Turning to `CC(C)OC(=O)Nc1cnc2nc(-c3cc(NC(=O)N(C)C)ccc3Cl)cn2c1` [Compound 246], the half-maximal effective concentration (EC50) in test [1] (setting [5]) was 562 nM; in test [2] (setting [6]), 0.085 µM; in test [3] (inhibition of proliferation), 1190 nM; in test [4] (inhibition of proliferation), 622 nM.
With `CCc1cnc2nc(-c3cc(NC(=O)c4oc(C)nc4C)ccc3F)cn2c1` [Compound 423], the EC50 is 90 nM in test [1] (L. donovani axenic amastigotes), 0.035 µM in test [2] (setting [7]), 217 nM in test [3] and 48 nM in test [4].
For `Cc1nc(C)c(C(=O)Nc2ccc(F)c(-c3cn4cc(NC(=O)OCCF)cnc4n3)c2)o1` [Compound 307], the EC50 was found to be 249 nM in test [1] (setting [5]), 0.356 µM in test [2] (setting [6]), 428 nM in test [3] (inhibition of proliferation) and 2540 nM in test [4] (inhibition of proliferation).
Take `Cc1nc(C)c(C(=O)Nc2ccc(F)c(-c3cn4cc(-c5cncc(F)c5)cnc4n3)c2)o1` [Compound 443]: the 50% effective concentration (EC50) in test [1] (L. donovani axenic amastigotes) was determined as 81 nM; in test [2] (setting [7]), 0.034 µM; in test [3] it was 146 nM; in test [4] it was 103 nM.
With `Cc1cc(C(=O)Nc2ccc(F)c(-c3cn4cc(NC(=O)OC(C)C)cnc4n3)c2)on1` [Compound 112], the EC50 in test [1] (setting [5]) was 2100 nM; in test [2] (setting [6]), 1.09 µM; in test [3] (inhibition of proliferation), 16600 nM; in test [4] (inhibition of proliferation) it was 1270 nM.
As for `Cc1nc(C)c(C(=O)Nc2ccc(F)c(-c3cn4cc(-c5ccccc5N)cnc4n3)c2)o1` [Compound 372], the EC50 in test [1] (L. donovani axenic amastigotes) came out at 221 nM; in test [2] (setting [7]), 0.08 µM; in test [3], 242 nM; in test [4], 95 nM.
Regarding `CC(C)OC(=O)Nc1cnc2nc(-c3cc(NC(=O)N4C[C@@H]5C[C@H]4CO5)ccc3Cl)cn2c1` [Compound 258], the EC50 in test [1] (setting [5]) was 20200 nM; in test [2] (setting [6]), 13.1 µM; in test [3] (inhibition of proliferation) it was over 42400 nM; in test [4] (inhibition of proliferation), over 20000 nM.
For `Cc1nc(C)c(C(=O)Nc2ccc(F)c(-c3cn4cc(-c5ccc(F)cc5)cnc4n3)c2)o1` [Compound 396], the EC50 in test [1] (L. donovani axenic amastigotes) came to 55 nM; in test [2] (setting [7]), 0.042 µM; in test [3], 88 nM; in test [4] it was 17 nM.
Taken in the same sequence, the figures for `O=C(Nc1ccc(F)c(-c2cn3cc(C4CC4)cnc3n2)c1)[C@H]1CC[C@@H](O)CC1` [Compound 598] were 2770 nM, 4.36 µM, 10300 nM and 2550 nM.
The corresponding values for `CC(C)c1cnc2nc(-c3cc(NC(=O)N4CCC4)ccc3F)cn2c1` [Compound 411, N-(4-fluoro-3-(6-isopropylimidazo[1,2-a]pyrimidin-2-yl)phenyl)azetidine-1-carboxamide] are 83 nM, 0.022 µM, 154 nM and 46 nM.
Turning to `Cc1nc(C)c(C(=O)Nc2ccc(F)c(-c3cn4cc(-c5cscn5)cnc4n3)c2)o1` [Compound 374], the EC50 in test [1] (L. donovani axenic amastigotes) came to 40 nM; in test [2] (setting [7]), 0.425 µM; in test [3] it was 43 nM; in test [4], 41 nM.
As for `Cc1nc(C)c(C(=O)Nc2ccc(F)c(-c3cn4cc(-c5ccc(F)cn5)cnc4n3)c2)o1` [Compound 431], the EC50 in test [1] (L. donovani axenic amastigotes) stood at 79 nM; in test [2] (setting [7]), 0.149 µM; in test [3], 845 nM; in test [4] it was 46 nM.
The corresponding values for `CN1CCOC(C(=O)Nc2ccc(F)c(-c3cn4cc(C5CC5)cnc4n3)c2)C1` (stereo not shown) [Compound 601] are over 25000 nM, over 50 µM, 4040 nM and over 20000 nM.
For the compound `CC(C)OC(=O)Nc1cnc2nc(-c3cc(NC(=O)[C@H](N)c4ccccc4)ccc3F)cn2c1` [Compound 85], the EC50 is over 25000 nM in test [1] (setting [5]), 32.7 µM in test [2] (setting [6]), 15200 nM in test [3] (inhibition of proliferation) and 10800 nM in test [4] (inhibition of proliferation).
With `O=C(Nc1ccc(F)c(-c2cn3cc(-c4cccnc4)cnc3n2)c1)N1CC(F)C1` [Compound 401], the EC50 in test [1] (L. donovani axenic amastigotes) came out at 94 nM; in test [2] (setting [7]) it was 0.034 µM; in test [3] it was 263 nM; in test [4] it was 445 nM.
For the compound `CC(C)OC(=O)Nc1cnc2nc(-c3cc(NC(=O)c4cncs4)ccc3F)cn2c1` [Compound 90], the EC50 came out at 894 nM in test [1] (setting [5]), 0.61 µM in test [2] (setting [6]), 7580 nM in test [3] (inhibition of proliferation) and 1460 nM in test [4] (inhibition of proliferation).
Taken in the same sequence, the figures for `CC(C)OC(=O)Nc1cnc2nc(-c3cc(NC(=O)c4ccco4)ccc3Cl)cn2c1` [Compound 244] were 152 nM, 0.065 µM, 345 nM and 55 nM.
`Cc1nc(C)c(C(=O)Nc2ccc(F)c(-c3cn4cc(NCC(C)C)cnc4n3)c2)o1` [Compound 463]: the EC50 in test [1] (L. donovani axenic amastigotes) came out at 571 nM; in test [2] (setting [7]) it was 0.238 µM; in test [3] it was 507 nM; in test [4] it was 163 nM.
The corresponding values for `Cc1nc(C)c(C(=O)Nc2ccc(F)c(-c3cn4cc(-c5cccc(F)n5)cnc4n3)c2)o1` [Compound 434] are 107 nM, 0.16 µM, 924 nM and 42 nM.

What is called EC50 is the midpoint of the concentration-response curve.
